According to the supplement of paper PMC10307832:

What was measured:
Assay in all cases: relative viability (nuclei count vs DMSO), 5 days (fraction); higher = more cells survive
[1] = compound: C#Cc1cccc(Nc2ncnc3cc(OC)c(OCCCCCCC(=O)NO)cc23)c1 [CUDC-101] + Nc1ncn([C@H]2C[C@H](O)[C@@H](CO)O2)c(=O)n1 [Decitabine] (partner 2 µM)
How it was run: (§1)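 Relative viability equals treated-well nuclei counts divided by vehicle-well nuclei counts. Counts came from 4× images of lung cancer cell lines grown in 1536-well plates for 5 days after pin-tool dosing on the day after seeding. Dosing used one drug alone or a fixed anchor-drug dose plus five library-drug doses (not always all listed) in √10 steps, and values are medians of duplicate plates.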

[2] = compound: C#Cc1cccc(Nc2ncnc3cc(OC)c(OCCCCCCC(=O)NO)cc23)c1 [CUDC-101] + NC(=O)Nc1cc(-c2cccc(F)c2)sc1C(=O)N[C@H]1CCCNC1 [AZD7762] (partner 0.2 µM)
How it was run: as §1

[3] = compound: C#Cc1cccc(Nc2ncnc3cc(OC)c(OCCCCCCC(=O)NO)cc23)c1 [CUDC-101] + COc1cccc2cc(-c3nc([C@H]4CC[C@H](C(=O)O)CC4)n4ncnc(N)c34)[nH]c12 [OSI-027] (partner 0.5 µM)
How it was run: as §1

[4] = compound: C#Cc1cccc(Nc2ncnc3cc(OC)c(OCCCCCCC(=O)NO)cc23)c1 [CUDC-101] + COc1cc2c(Oc3ccc(NC(=O)C4(C(=O)Nc5ccc(F)cc5)CC4)cc3F)ccnc2cc1OCCCN1CCOCC1 [Foretinib] (partner 0.25 µM)
How it was run: as §1

Row | Cell Line | relative viability ([1]; first compound 0.01 µM) | relative viability ([1]; first compound 0.03162 µM) | relative viability ([1]; first compound 0.1 µM) | relative viability ([1]; first compound 0.3162 µM) | relative viability ([1]; first compound 1 µM) | relative viability ([2]; first compound 0.01 µM) | relative viability ([2]; first compound 0.03162 µM) | relative viability ([2]; first compound 0.1 µM) | relative viability ([2]; first compound 0.3162 µM) | relative viability ([2]; first compound 1 µM) | relative viability ([3]; first compound 0.01 µM) | relative viability ([3]; first compound 0.03162 µM) | relative viability ([3]; first compound 0.3162 µM) | relative viability ([3]; first compound 1 µM) | relative viability ([4]; first compound 0.01 µM) | relative viability ([4]; first compound 0.03162 µM) | relative viability ([4]; first compound 0.1 µM) | relative viability ([4]; first compound 0.3162 µM) | relative viability ([4]; first compound 1 µM) | relative viability ([3]; first compound 0.1 µM)
1 | 201T | 0.835 | 0.863 | 0.844 | 0.842 | 0.828 | 0.617 | 0.646 | 0.613 | 0.614 | 0.39 | 0.801 | 0.703 | 0.752 | 0.687 | 1.11 | 0.835 | 1.03 | 1.28 | 0.936 | 
2 | A549 | 0.297 | 0.277 | 0.218 | 0.286 | 0.276 |  |  |  |  |  |  |  |  |  | 0.985 | 1 | 0.907 | 1.02 | 0.769 | 
3 | A-427 | 0.617 | 0.619 | 0.591 | 0.568 | 0.554 | 0.675 | 0.701 | 0.625 | 0.483 | 0.258 | 0.464 | 0.486 | 0.473 | 0.308 | 1.01 | 0.975 | 1.01 | 1.06 | 0.877 | 0.351
4 | ABC-1 | 0.989 | 0.92 | 0.992 | 0.985 | 1.03 | 0.889 | 0.807 | 0.763 | 0.852 | 0.334 | 0.601 | 0.461 | 0.373 | 0.142 | 1.04 | 0.797 | 1.07 | 0.704 | 0.519 | 0.454
5 | BEN | 0.724 | 0.656 | 0.709 | 0.649 | 0.498 | 0.68 | 0.735 | 0.703 | 0.684 | 0.645 | 0.336 | 0.259 | 0.281 | 0.292 | 0.822 | 0.547 | 0.804 | 0.581 | 0.648 | 0.348
6 | CAL-12T |  |  |  |  |  | 0.668 | 0.567 | 0.617 | 0.536 | 0.601 | 0.706 | 0.668 | 0.71 | 0.575 | 1.11 | 1.06 | 1.18 | 1.16 | 1.16 | 0.777
7 | COR-L23 | 0.432 | 0.383 | 0.332 | 0.376 | 0.164 |  |  |  |  |  | 0.786 | 0.724 | 0.695 | 0.39 | 1.12 | 0.947 | 0.924 | 0.96 | 0.494 | 0.792
8 | COR-L 105 | 0.67 | 0.752 | 0.622 | 0.723 | 0.351 |  |  |  |  |  | 0.717 | 0.73 | 0.61 | 0.204 | 0.941 | 0.987 | 0.951 | 0.793 | 0.527 | 0.399
9 | Calu-6 |  |  |  |  |  |  |  |  |  |  |  |  |  |  | 0.932 | 0.857 | 0.878 | 0.823 | 0.714 | 
10 | ChaGo-K-1 | 0.558 | 0.47 | 0.555 | 0.505 | 0.492 | 0.92 | 0.913 | 0.937 | 0.841 | 0.732 | 0.527 | 0.579 | 0.538 | 0.43 | 0.916 | 0.875 | 0.945 | 0.894 | 0.709 | 0.541
11 | EBC-1 |  |  |  |  |  |  |  |  |  |  |  |  |  |  | 0.0994 | 0.109 | 0.109 | 0.0873 | 0.0665 | 
12 | EKVX | 0.322 | 0.446 | 0.33 | 0.323 | 0.299 | 0.84 | 0.68 | 0.656 | 0.771 | 0.563 | 0.649 | 0.696 | 0.798 | 0.579 | 0.976 | 0.639 | 0.681 | 1.18 | 0.859 | 0.694
13 | EMC-BAC-2 | 1.09 | 0.925 | 0.948 | 0.952 | 0.654 | 1.08 | 1.09 | 1.06 | 0.947 | 0.443 | 0.405 | 0.371 | 0.315 | 0.263 | 1.12 | 0.982 | 0.954 | 1.03 | 0.56 | 0.401
14 | EPLC-272H | 0.327 | 0.363 | 0.341 | 0.301 | 0.309 | 0.187 | 0.139 | 0.175 | 0.109 | 0.115 | 0.266 | 0.317 | 0.244 | 0.187 | 0.664 | 0.723 | 0.646 | 0.341 | 0.585 | 0.238
15 | H3255 | 0.643 | 0.549 |  | 0.227 | 0.15 | 1.01 | 0.721 | 0.546 | 0.556 | 0.259 | 0.571 | 0.556 | 0.395 | 0.204 | 0.864 | 0.917 |  | 0.486 | 0.279 | 
16 | HARA | 0.446 | 0.515 |  | 0.464 | 0.254 | 0.31 | 0.507 |  | 0.24 | 0.131 | 0.509 | 0.442 | 0.348 | 0.171 | 0.903 | 0.78 | 0.853 | 0.611 | 0.285 | 0.322
17 | HCC-15 | 0.579 | 0.628 | 0.655 | 0.621 | 0.443 | 1.3 | 1.08 | 1.2 | 1.15 | 1.18 | 0.697 | 0.696 | 0.73 | 0.584 | 1.09 | 0.993 | 0.966 | 1.09 | 0.933 | 0.674
18 | HCC-44 | 0.908 | 1.03 | 0.912 | 0.906 | 0.913 | 1.04 | 1.01 | 1.05 | 0.981 | 1.06 | 0.527 | 0.685 | 0.586 | 0.295 |  |  |  |  |  | 0.587
19 | HCC-78 | 0.738 | 0.591 | 0.719 | 0.624 | 0.433 | 0.66 | 0.531 | 0.603 | 0.355 | 0.323 | 0.291 | 0.352 | 0.335 | 0.218 | 0.549 | 0.56 | 0.543 | 0.494 | 0.268 | 0.362
